{
  "source": "patent US20070117776A1",
  "about": "“Low Dose Therapy Of DNA Methylation Inhibitors” (priority 2005, published 2007)",
  "assay_type": "physicochemical",
  "protocol": "Maintaining the solution at low temperature and buffering the drug can control degradation kinetics of aqueous solutions but the stability achieved is not sufficient to render the product stable during its entire proposed shelf life. A dry solid formulation of decitabine which is stable was achieved by lyophilization of an aqueous solution. The process of lyophilization to obtain a solid form is considered essential for maximizing the stability of the product.\nA bulk solution of 5 mg/mL of decitabine was prepared during compounding. To minimize degradation during compounding of the bulk solution prior to lyophilization, the bulk solution was maintained at low temperature, and the time the drug remains in solution prior to lyophilization was minimized. Maximum solution stability was achieved by dissolving the drug in a pH 6.8-7.0 phosphate buffer solution at 0-4° C.\nBased on the results, appropriate recommendations for the preparation and storage of the reconstituted and diluted solutions can be made to pharmacists and clinical practitioners. The product was reconstituted in 10 mL WFI and diluted with one of the three pre-chilled infusion fluids indicated in Table 1 and Table 2 to two different concentrations, 0.1 mg/mL and 1 mg/mL covering the entire concentration range expected to be used in the clinical setting. The diluted solutions were stored for one to ten hours in infusion bags in the refrigerator at 2-8° C. to simulate conditions prior to infusion and then removed and placed at room temperature to simulate conditions during infusion. Bags placed in the refrigerator for one hour were removed and placed at room temperature and sampled thereafter for the next three hours at room temperature (Experiment No. 1) while the bags placed in the refrigerator for ten hours were removed and sampled for the next two hours at room temperature (Experiment No. 2).\nThe method used to estimate degradation products is based on percent peak area measurements assuming the degradation products have a response factor of 1, with respect to decitabine.\nTable 1 and Table 2 also show the pH data obtained after the preparation of the infusion, which is consistently within ±0.3 pH units of neutral pH.",
  "key": {"[1]": {"details": "0.1 mg/mL in 0.9% NaCl, Experiment 1 (2-8° C. one hour, then room temperature), at 0 h"}, "[2]": {"details": "0.1 mg/mL in 0.9% NaCl, Experiment 1 (2-8° C. one hour, then room temperature), at 1 h"}, "[3]": {"details": "0.1 mg/mL in 0.9% NaCl, Experiment 1 (2-8° C. one hour, then room temperature), at 2 h"}, "[4]": {"details": "0.1 mg/mL in 0.9% NaCl, Experiment 1 (2-8° C. one hour, then room temperature), at 3 h"}, "[5]": {"details": "0.1 mg/mL in 0.9% NaCl, Experiment 1 (2-8° C. one hour, then room temperature), at 4 h"}, "[6]": {"details": "0.1 mg/mL in 0.9% NaCl, Experiment 2 (2-8° C. ten hours, then room temperature), at 0 h"}, "[7]": {"details": "0.1 mg/mL in 0.9% NaCl, Experiment 2 (2-8° C. ten hours, then room temperature), at 10 h"}, "[8]": {"details": "0.1 mg/mL in 0.9% NaCl, Experiment 2 (2-8° C. ten hours, then room temperature), at 11 h"}, "[9]": {"details": "0.1 mg/mL in 0.9% NaCl, Experiment 2 (2-8° C. ten hours, then room temperature), at 12 h"}, "[10]": {"details": "0.1 mg/mL in 5% Dextrose, Experiment 1 (2-8° C. one hour, then room temperature), at 0 h"}, "[11]": {"details": "0.1 mg/mL in 5% Dextrose, Experiment 1 (2-8° C. one hour, then room temperature), at 1 h"}, "[12]": {"details": "0.1 mg/mL in 5% Dextrose, Experiment 1 (2-8° C. one hour, then room temperature), at 2 h"}, "[13]": {"details": "0.1 mg/mL in 5% Dextrose, Experiment 1 (2-8° C. one hour, then room temperature), at 3 h"}, "[14]": {"details": "0.1 mg/mL in 5% Dextrose, Experiment 1 (2-8° C. one hour, then room temperature), at 4 h"}, "[15]": {"details": "0.1 mg/mL in 5% Dextrose, Experiment 2 (2-8° C. ten hours, then room temperature), at 0 h"}, "[16]": {"details": "0.1 mg/mL in 5% Dextrose, Experiment 2 (2-8° C. ten hours, then room temperature), at 10 h"}, "[17]": {"details": "0.1 mg/mL in 5% Dextrose, Experiment 2 (2-8° C. ten hours, then room temperature), at 11 h"}, "[18]": {"details": "0.1 mg/mL in 5% Dextrose, Experiment 2 (2-8° C. ten hours, then room temperature), at 12 h"}, "[19]": {"details": "0.1 mg/mL in Lactated Ringer's, Experiment 1 (2-8° C. one hour, then room temperature), at 0 h"}, "[20]": {"details": "0.1 mg/mL in Lactated Ringer's, Experiment 1 (2-8° C. one hour, then room temperature), at 1 h"}, "[21]": {"details": "0.1 mg/mL in Lactated Ringer's, Experiment 1 (2-8° C. one hour, then room temperature), at 2 h"}, "[22]": {"details": "0.1 mg/mL in Lactated Ringer's, Experiment 1 (2-8° C. one hour, then room temperature), at 3 h"}, "[23]": {"details": "0.1 mg/mL in Lactated Ringer's, Experiment 1 (2-8° C. one hour, then room temperature), at 4 h"}, "[24]": {"details": "0.1 mg/mL in Lactated Ringer's, Experiment 2 (2-8° C. ten hours, then room temperature), at 0 h"}, "[25]": {"details": "0.1 mg/mL in Lactated Ringer's, Experiment 2 (2-8° C. ten hours, then room temperature), at 10 h"}, "[26]": {"details": "0.1 mg/mL in Lactated Ringer's, Experiment 2 (2-8° C. ten hours, then room temperature), at 11 h"}, "[27]": {"details": "0.1 mg/mL in Lactated Ringer's, Experiment 2 (2-8° C. ten hours, then room temperature), at 12 h"}},
  "note": "Like-named read-outs stand apart in the source and are kept apart here.",
  "data": [
    {"smiles": "Nc1ncn([C@H]2C[C@H](O)[C@@H](CO)O2)c(=O)n1", "note": "[Decitabine, 4-amino-1-(2-deoxy-β-D-erythro-pentofuranosyl)-1,3,5-triazin-2(1H)-one]", "values": [
      {"measurement": "degradation in aqueous solution", "value": "degrades rapidly"},
      {"measurement": "pH after the preparation of the infusion", "setting": "0.1 mg/mL in 0.9% NaCl", "value": 6.7},
      {"measurement": "Decitabine Content", "setting": "[1]", "value": 97.5, "unit": "%"},
      {"measurement": "Total Impurities", "setting": "[1]", "value": "(2.5%)"},
      {"measurement": "Decitabine Content", "setting": "[2]", "value": 96.9, "unit": "%"},
      {"measurement": "Total Impurities", "setting": "[2]", "value": "(3.2%)"},
      {"measurement": "Decitabine Content", "setting": "[3]", "value": 95.7, "unit": "%"},
      {"measurement": "Total Impurities", "setting": "[3]", "value": "(4.3%)"},
      {"measurement": "Decitabine Content", "setting": "[4]", "value": 94.1, "unit": "%"},
      {"measurement": "Total Impurities", "setting": "[4]", "value": "(6.0%)"},
      {"measurement": "Decitabine Content", "setting": "[5]", "value": 92.5, "unit": "%"},
      {"measurement": "Total Impurities", "setting": "[5]", "value": "(7.7%)"},
      {"measurement": "Decitabine Content", "setting": "[6]", "value": 97.8, "unit": "%"},
      {"measurement": "Total Impurities", "setting": "[6]", "value": "(2.2%)"},
      {"measurement": "Decitabine Content", "setting": "[7]", "value": 93.4, "unit": "%"},
      {"measurement": "Total Impurities", "setting": "[7]", "value": "(6.7%)"},
      {"measurement": "Decitabine Content", "setting": "[8]", "value": 92.3, "unit": "%"},
      {"measurement": "Total Impurities", "setting": "[8]", "value": "(7.7%)"},
      {"measurement": "Decitabine Content", "setting": "[9]", "value": 90.8, "unit": "%"},
      {"measurement": "Total Impurities", "setting": "[9]", "value": "(9.2%)"},
      {"measurement": "pH after the preparation of the infusion", "setting": "0.1 mg/mL in 5% Dextrose", "value": 6.9},
      {"measurement": "Decitabine Content", "setting": "[10]", "value": 97.4, "unit": "%"},
      {"measurement": "Total Impurities", "setting": "[10]", "value": "(2.6%)"},
      {"measurement": "Decitabine Content", "setting": "[11]", "value": 97.2, "unit": "%"},
      {"measurement": "Total Impurities", "setting": "[11]", "value": "(2.7%)"},
      {"measurement": "Decitabine Content", "setting": "[12]", "value": 96.4, "unit": "%"},
      {"measurement": "Total Impurities", "setting": "[12]", "value": "(3.6%)"},
      {"measurement": "Decitabine Content", "setting": "[13]", "value": 94.9, "unit": "%"},
      {"measurement": "Total Impurities", "setting": "[13]", "value": "(5.1%)"},
      {"measurement": "Decitabine Content", "setting": "[14]", "value": 93.6, "unit": "%"},
      {"measurement": "Total Impurities", "setting": "[14]", "value": "(6.4%)"},
      {"measurement": "Decitabine Content", "setting": "[15]", "value": 98.2, "unit": "%"},
      {"measurement": "Total Impurities", "setting": "[15]", "value": "(1.9%)"},
      {"measurement": "Decitabine Content", "setting": "[16]", "value": 94.9, "unit": "%"},
      {"measurement": "Total Impurities", "setting": "[16]", "value": "(5.2%)"},
      {"measurement": "Decitabine Content", "setting": "[17]", "value": 94.5, "unit": "%"},
      {"measurement": "Total Impurities", "setting": "[17]", "value": "(5.6%)"},
      {"measurement": "Decitabine Content", "setting": "[18]", "value": 93.3, "unit": "%"},
      {"measurement": "Total Impurities", "setting": "[18]", "value": "(6.7%)"},
      {"measurement": "pH after the preparation of the infusion", "setting": "0.1 mg/mL in Lactated Ringer's", "value": 6.7},
      {"measurement": "Decitabine Content", "setting": "[19]", "value": 98.3, "unit": "%"},
      {"measurement": "Total Impurities", "setting": "[19]", "value": "(1.7%)"},
      {"measurement": "Decitabine Content", "setting": "[20]", "value": 98.1, "unit": "%"},
      {"measurement": "Total Impurities", "setting": "[20]", "value": "(1.9%)"},
      {"measurement": "Decitabine Content", "setting": "[21]", "value": 97.0, "unit": "%"},
      {"measurement": "Total Impurities", "setting": "[21]", "value": "(3.0%)"},
      {"measurement": "Decitabine Content", "setting": "[22]", "value": 95.9, "unit": "%"},
      {"measurement": "Total Impurities", "setting": "[22]", "value": "(4.1%)"},
      {"measurement": "Decitabine Content", "setting": "[23]", "value": 94.9, "unit": "%"},
      {"measurement": "Total Impurities", "setting": "[23]", "value": "(5.2%)"},
      {"measurement": "Decitabine Content", "setting": "[24]", "value": 98.0, "unit": "%"},
      {"measurement": "Total Impurities", "setting": "[24]", "value": "(2.1%)"},
      {"measurement": "Decitabine Content", "setting": "[25]", "value": 93.4, "unit": "%"},
      {"measurement": "Total Impurities", "setting": "[25]", "value": "(6.7%)"},
      {"measurement": "Decitabine Content", "setting": "[26]", "value": 92.6, "unit": "%"},
      {"measurement": "Total Impurities", "setting": "[26]", "value": "(7.4%)"},
      {"measurement": "Decitabine Content", "setting": "[27]", "value": 91.8, "unit": "%"},
      {"measurement": "Total Impurities", "setting": "[27]", "value": "(8.3%)"},
      {"measurement": "pH of maximum solution stability", "setting": "5 mg/mL", "value": "6.8-7.0"},
      {"measurement": "pH deviation from neutral pH after the preparation of the infusion", "setting": "Table 1 and Table 2 solutions", "value": "≤ 0.3", "unit": "pH units"}
    ]}
  ]
}
